Test results from EP0227941A1, “1-Phenyl-4-(1H)-pyridazinimines, their preparation and use” (BASF Aktiengesellschaft, priority 1985, dated 1987).
pIC50: −log10 of the molar value. Counter-ions that a name gives are not always drawn.

Experiments:
Type in all cases: biochemical, Ratten
Monoaminoxidase Typ A = molecular target: T1, Monoaminoxidase Typ A (Rattus norvegicus, UniProt P21396); test: Inhibition of monoamine oxidase type A in rat brain homogenate (14C-tryptamine)
T1 construct: Die Bestimmung der Monoaminoxidase erfolgte in verdünntem Rattenhirnhomogenat; from tissue; host or cells: rat brain homogenate
T1 sequence (P21396 1-526): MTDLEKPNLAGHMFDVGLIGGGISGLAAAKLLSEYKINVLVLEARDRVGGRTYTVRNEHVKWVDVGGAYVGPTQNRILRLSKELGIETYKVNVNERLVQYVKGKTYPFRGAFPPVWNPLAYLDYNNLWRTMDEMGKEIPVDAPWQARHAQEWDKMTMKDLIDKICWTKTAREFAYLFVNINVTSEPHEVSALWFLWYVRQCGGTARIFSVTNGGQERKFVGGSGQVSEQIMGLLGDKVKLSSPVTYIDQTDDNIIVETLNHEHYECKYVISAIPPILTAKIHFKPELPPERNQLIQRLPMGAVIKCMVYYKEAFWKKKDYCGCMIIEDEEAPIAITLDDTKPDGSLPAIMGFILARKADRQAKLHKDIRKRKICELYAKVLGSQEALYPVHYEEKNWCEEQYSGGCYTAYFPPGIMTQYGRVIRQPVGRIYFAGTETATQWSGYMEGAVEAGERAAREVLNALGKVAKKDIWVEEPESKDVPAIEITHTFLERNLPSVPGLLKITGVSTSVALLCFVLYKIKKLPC
Description: (§1) Hemmung der Monoaminoxidase
(§2) Die Bestimmung der Monoaminoxidase erfolgte in verdünntem Rattenhirnhomogenat dem 1. unterschiedliche Konzentrationen der zu prüfenden Testsubstanzen und 2. für die Bestimmung der Monoaminoxidase Typ A ¹⁴C-Tryptamin in einer Konzentration von 0,4 µmol, zur Bestimmung der Monoaminoxidase Typ B ¹⁴C-Phenylethylamin in einer Konzentration von 0,25 µmol zugesetzt wurde. Dieser Ansatz wurde 20 Minuten bei 37°C inkubiert. Die Reaktion wird durch 0,1 n HCl gestoppt und die Reaktionsprodukte nach Extraktion in Toluol-Szintillator (PPO + POPOP in Toluol) bestimmt. Der Blindwert wird in analogen Ansätzen mit einer Inkubationszeit von t = 0 Minuten bestimmt.
(§3) Aus den bei den verschiedenen Inhibitorkonzentrationen gegen die Kontrolle ermittelten Hemmwerten wurde durch lineare Regression nach logit-log-Transformation die mittlere Hemmkonzentration (IC₅₀) berechnet.

[1] = molecular target: T2, Synaptosomen-Aufnahme von Serotonin (Rattus norvegicus, UniProt P31652); test: Inhibition of serotonin uptake in rat brain synaptosomes (cortex, 3H-serotonin)
T2 construct: Durch differentielle Zentrifugation wurden Synaptosomen erhalten; from tissue; host or cells: rat brain cortex synaptosomes
T2 sequence (P31652 whole entry): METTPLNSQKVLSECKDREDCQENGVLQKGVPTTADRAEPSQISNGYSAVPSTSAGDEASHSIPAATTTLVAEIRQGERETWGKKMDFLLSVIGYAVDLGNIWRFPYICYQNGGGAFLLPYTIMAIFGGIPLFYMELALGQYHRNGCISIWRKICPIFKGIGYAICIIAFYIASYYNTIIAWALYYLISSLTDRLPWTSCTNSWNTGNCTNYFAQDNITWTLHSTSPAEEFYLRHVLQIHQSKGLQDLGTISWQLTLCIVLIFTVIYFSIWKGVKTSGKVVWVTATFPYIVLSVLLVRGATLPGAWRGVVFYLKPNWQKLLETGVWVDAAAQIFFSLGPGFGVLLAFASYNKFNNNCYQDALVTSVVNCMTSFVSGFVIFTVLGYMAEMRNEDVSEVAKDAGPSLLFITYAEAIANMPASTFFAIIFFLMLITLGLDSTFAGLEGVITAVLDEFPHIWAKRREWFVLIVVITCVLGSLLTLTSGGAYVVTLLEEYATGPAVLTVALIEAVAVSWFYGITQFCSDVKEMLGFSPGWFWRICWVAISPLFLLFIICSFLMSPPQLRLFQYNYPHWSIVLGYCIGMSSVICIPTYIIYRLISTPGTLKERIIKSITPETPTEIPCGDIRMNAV
Description: (§4) Hemmung der Neurotransmitter-Aufnahme in Rattenhirn-Synaptosomen
(§5) Hippocampus und Cortex aus Rattenhirn wurden präpariert und in 0,32 M Sucrose-Lösung homogenisiert. Durch differentielle Zentrifugation wurden Synaptosomen erhalten, die in Pufferlösung suspendiert wurden. Die Synaptosomen sind in der Lage, aus dem umgebenden Medium zugefügte Neurotransmittersubstanzen (z.B. Noradrenalin oder Serotonin) aktiv aufzunehmen. Dieser Vorgang ist durch uptake-Hemmer konzentrationsabhängig antagonisierbar. Die Synaptosomen wurden mit den Testsubstanzen in verschiedenen Konzentrationen versetzt und anschließend mit ³H-Noradrenalin (Hippocampus) bzw. ³H-Serotonin (Cortex) bei 37°C inkubiert. Die Substratkonzentration betrug ca. 10 nM. Nach Stoppen der Aufnahme durch Verdünnen mit eisgekühlter Pufferlösung wurden die Synaptosomen abzentrifugiert und die ³H-Aktivität im Sediment gemessen. Der Blindwert wird durch Inkubation bei 0°C ermittelt.
(§6) Aus den verschiedenen Inhibitor-Konzentrationen gegen Kontrolle ermittelten Hemmwerten wurde durch lineare Regression nach logit-log-Transformation die mittlere Hemmkonzentration IC₅₀ berechnet.

[2] = molecular target: T3, Synaptosomen-Aufnahme von Noradrenalin (Rattus norvegicus, UniProt Q63380); test: Inhibition of noradrenaline uptake in rat brain synaptosomes (hippocampus, 3H-noradrenaline)
T3 construct: Durch differentielle Zentrifugation wurden Synaptosomen erhalten; from tissue; host or cells: rat brain hippocampus synaptosomes
T3 sequence (Q63380 1-617): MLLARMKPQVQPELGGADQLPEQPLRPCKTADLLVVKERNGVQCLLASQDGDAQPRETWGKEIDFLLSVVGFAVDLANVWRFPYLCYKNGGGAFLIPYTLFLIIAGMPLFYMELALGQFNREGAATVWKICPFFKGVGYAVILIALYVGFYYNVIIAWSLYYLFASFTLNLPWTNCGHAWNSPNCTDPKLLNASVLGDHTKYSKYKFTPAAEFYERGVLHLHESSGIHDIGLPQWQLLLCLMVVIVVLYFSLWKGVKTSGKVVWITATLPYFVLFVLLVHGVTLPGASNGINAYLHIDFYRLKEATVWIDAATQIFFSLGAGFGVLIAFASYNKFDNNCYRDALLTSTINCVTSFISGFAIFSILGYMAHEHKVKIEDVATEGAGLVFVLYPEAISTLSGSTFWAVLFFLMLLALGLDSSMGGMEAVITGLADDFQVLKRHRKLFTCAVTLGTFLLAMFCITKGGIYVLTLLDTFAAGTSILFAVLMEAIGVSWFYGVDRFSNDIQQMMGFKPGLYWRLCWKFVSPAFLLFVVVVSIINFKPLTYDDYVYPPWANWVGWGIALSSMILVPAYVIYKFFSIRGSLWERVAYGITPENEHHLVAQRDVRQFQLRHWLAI
Description: as §4, §5, §6

Monoaminoxidase Typ B = molecular target: T4, Monoaminoxidase Typ B (Rattus norvegicus, UniProt P19643); test: Inhibition of monoamine oxidase type B in rat brain homogenate (14C-phenylethylamine)
T4 construct: Die Bestimmung der Monoaminoxidase erfolgte in verdünntem Rattenhirnhomogenat; from tissue; host or cells: rat brain homogenate
T4 sequence (P19643 1-520): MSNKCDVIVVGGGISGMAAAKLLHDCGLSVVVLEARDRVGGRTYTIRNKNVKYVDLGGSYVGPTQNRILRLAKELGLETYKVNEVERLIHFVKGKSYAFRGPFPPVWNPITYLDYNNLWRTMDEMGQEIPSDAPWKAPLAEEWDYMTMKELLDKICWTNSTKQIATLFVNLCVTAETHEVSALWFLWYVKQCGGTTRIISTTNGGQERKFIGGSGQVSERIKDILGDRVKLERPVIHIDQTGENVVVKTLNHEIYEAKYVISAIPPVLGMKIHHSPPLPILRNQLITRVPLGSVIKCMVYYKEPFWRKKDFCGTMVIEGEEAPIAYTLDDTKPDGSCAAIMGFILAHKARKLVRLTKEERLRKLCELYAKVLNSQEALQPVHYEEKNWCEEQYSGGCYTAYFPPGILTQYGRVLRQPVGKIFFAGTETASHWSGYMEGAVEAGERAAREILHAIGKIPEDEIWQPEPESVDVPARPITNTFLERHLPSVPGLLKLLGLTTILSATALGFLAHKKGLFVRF
Description: as §1, §2, §3

[3] = Quotient IC50 Referenzverbindung / IC50 Beispielverbindung

Cc1ccc(-n2ccc(=N)cn2)cc1Br [Beispiel 13, 1-(3-Brom-4-methylphenyl)-4-(1H)-pyridazinimin-hydrochlorid]
Hemmung der Monoaminoxidase Typ A r.W. (relative Wirksamkeit) (Monoaminoxidase Typ A; [3]): 7.0
Hemmung der Monoaminoxidase A, Wirksamkeit der Vergleichssubstanz übertroffen (fach) (Monoaminoxidase Typ A; fold versus comparison substance): ≤ 7
pIC50 (Monoaminoxidase Typ A; rat brain homogenate, 14C-Tryptamin, 20 min 37°C, read-out: Hemmung der Monoaminoxidase Typ A IC50): 6.23
Hemmung der Synaptosomen-Aufnahme von Serotonin r.W. (relative Wirksamkeit) [1, 3]: 73.0
pIC50 ([1]; rat cortex synaptosomes, 3H-Serotonin ca. 10 nM, 37°C, read-out: Hemmung der Synaptosomen-Aufnahme von Serotonin IC50): 8.00
Hemmung der Synaptosomen-Aufnahme von Noradrenalin r.W. (relative Wirksamkeit) [2, 3]: 1.2
pIC50 ([2]; rat hippocampus synaptosomes, 3H-Noradrenalin ca. 10 nM, 37°C, read-out: Hemmung der Synaptosomen-Aufnahme von Noradrenalin IC50): 7.59
Hemmung der Monoaminoxidase Typ B r.W. (relative Wirksamkeit) (Monoaminoxidase Typ B; [3]): 39.8
pIC50 (Monoaminoxidase Typ B; rat brain homogenate, 14C-Phenylethylamin, 20 min 37°C, read-out: Hemmung der Monoaminoxidase Typ B IC50): 5.92
